Measured values as given in the NIST ThermoML archive (doi:10.1016/j.jct.2019.05.021).

Legend:
[1] = xn = mol fraction of the nth substance listed; settings: 100 kPa, Liquid, x1 = 1; for viscosity: Falling or rolling sphere viscometry; for mass density: Vibrating tube method
[2] = 100 kPa, Liquid; for viscosity: Falling or rolling sphere viscometry; for mass density: Vibrating tube method

CC1CCCCC1 [methylcyclohexane] + CCCCCCCCCCCCCC(=O)OC
[1]
Settings | mass density [kg/m3] | viscosity [mPa·s]
293.15 K | 769.38 | 0.733
298.15 K | 765.06 | 0.681
303.15 K | 760.71 | 0.638
308.15 K | 756.35 | 0.599
313.15 K | 751.98 | 0.563
318.15 K | 747.59 | 0.533
323.15 K | 743.19 | 0.505

CC1CCCCC1 [methylcyclohexane]
[2]
Settings | mass density [kg/m3] | viscosity [mPa·s]
293.15 K | 769.38 | 0.733
298.15 K | 765.06 | 0.681
303.15 K | 760.71 | 0.638
308.15 K | 756.35 | 0.599
313.15 K | 751.98 | 0.563
318.15 K | 747.59 | 0.533
323.15 K | 743.19 | 0.505

CCCCCCCCCCCCCC(=O)OC [methyl tetradecanoate]
[2]
Settings | mass density [kg/m3] | viscosity [mPa·s]
293.15 K | 867.17 | 4.557
298.15 K | 863.35 | 3.979
303.15 K | 859.54 | 3.519
308.15 K | 855.74 | 3.093
313.15 K | 851.94 | 2.797
318.15 K | 848.14 | 2.544
323.15 K | 844.34 | 2.308

CC1CCCCC1 [methylcyclohexane] + CCCCCCCCCCCC(=O)OC
[1]
Settings | mass density [kg/m3] | viscosity [mPa·s]
293.15 K | 769.38 | 0.733
298.15 K | 765.06 | 0.681
303.15 K | 760.71 | 0.638
308.15 K | 756.35 | 0.599
313.15 K | 751.98 | 0.563
318.15 K | 747.59 | 0.533
323.15 K | 743.19 | 0.505

CCCCCCCCCC(=O)OC [methyl decanoate]
[2]
Settings | mass density [kg/m3] | viscosity [mPa·s]
293.15 K | 872.25 | 2.125
298.15 K | 868.16 | 1.909
303.15 K | 864.06 | 1.738
308.15 K | 859.96 | 1.588
313.15 K | 855.85 | 1.453
318.15 K | 851.74 | 1.341
323.15 K | 847.62 | 1.245

CCCCCCCCCCCC(=O)OC [methyl dodecanoate]
[2]
Settings | mass density [kg/m3] | viscosity [mPa·s]
293.15 K | 869.3 | 3.151
298.15 K | 865.39 | 2.792
303.15 K | 861.46 | 2.504
308.15 K | 857.53 | 2.263
313.15 K | 853.61 | 2.049
318.15 K | 849.69 | 1.875
323.15 K | 845.76 | 1.729

CC1CCCCC1 [methylcyclohexane] + CCCCCCCCCC(=O)OC
[1]
Settings | mass density [kg/m3] | viscosity [mPa·s]
293.15 K | 769.38 | 0.733
298.15 K | 765.06 | 0.681
303.15 K | 760.71 | 0.638
308.15 K | 756.35 | 0.599
313.15 K | 751.98 | 0.563
318.15 K | 747.59 | 0.533
323.15 K | 743.19 | 0.505
